Assay results: ChEMBL document CHEMBL5055661, “Cell-Based Drug Discovery: Identification and Optimization of Small Molecules that Reduce c-MYC Protein Levels in Cells” (J Med Chem, 2021)
≈ marks a conversion by molar mass, not a printed value. Calls of active or inactive are those of the source. The rule behind the calls is not given here.

Tests used:
[1] = Reduction in cMyc expression in human COLO 320HSR cells incubated for 24 hrs by HTRF assay; type: functional, cell-based
[2] = Permeability of the compound across artificial membrane by AMP assay; type: ADME; details: PAMPA; read-out: permeability
[3] = Distribution coefficient, logD of the compound by chromatography; type: physicochemical; details: octanol/water
[4] = Half life in Han Wistar rat at 0.54 mg/kg, iv by LC-MS/MS analysis; type: ADME, organism-based; details: in vivo
[5] = Clearance in Han Wistar rat at 0.54 mg/kg, iv by LC-MS/MS analysis; type: ADME, organism-based; details: in vivo
[6] = Volume of distribution at steady state in Han Wistar rat at 0.54 mg/kg, iv by LC-MS/MS analysis; type: ADME, organism-based; details: in vivo, read-out: Vdss
[7] = Solubility by CLND assay; type: physicochemical
[8] = system: COLO-320-HSR; assay: Decrease in MYC mRNA level in human COLO 320HSR cells incubated for 6 hrs by qRT-PCR analysis; type: functional, cell-based
[9] = system: COLO-320-HSR; assay: Effect on MCL-1 protein level in human COLO 320HSR cells incubated for 24 hrs by Western blot analysis; type: functional, cell-based
[10] = system: COLO-320-HSR; assay: Decrease in c-MYC protein level in human COLO 320HSR cells incubated for 24 hrs by Western blot analysis; type: functional, cell-based
[11] = Decrease in nascent MYC mRNA level in human COLO 320HSR cells at 2 uM incubated for 75 mins by qRT-PCR analysis; type: functional; details: 1.25 h
[12] = Volume of distribution at steady state in Han Wistar rat at 1.9 mg/kg, iv by LC-MS/MS analysis; type: ADME, organism-based; details: in vivo, read-out: Vdss
[13] = Oral bioavailability in Han Wistar rat at 5.3 mg/kg by LC-MS/MS analysis; type: ADME, organism-based; details: in vivo
[14] = Clearance in Han Wistar rat at 1.9 mg/kg, iv by LC-MS/MS analysis; type: ADME, organism-based; details: in vivo
[15] = Half life in Han Wistar rat at 1.9 mg/kg, iv by LC-MS/MS analysis; type: ADME, organism-based; details: in vivo
[16] = AUC (0 to t) in Han Wistar rat at 5.3 mg/kg, po by LC-MS/MS analysis; type: ADME, organism-based; set-up: dose 5.3 mg/kg, route po; details: in vivo
[17] = Half life in Han Wistar rat at 1 mg/kg, iv by LC-MS/MS analysis; type: ADME, organism-based; details: in vivo
[18] = Volume of distribution at steady state in Han Wistar rat at 1 mg/kg, iv by LC-MS/MS analysis; type: ADME, organism-based; details: in vivo, read-out: Vdss
[19] = Oral bioavailability in CD1 mouse at 5 mg/kg by LC-MS/MS analysis; type: ADME, organism-based; details: in vivo
[20] = AUC (0 to inf) in Han Wistar rat at 2 mg/kg, po by LC-MS/MS analysis; type: ADME, organism-based; set-up: time infinity, dose 2 mg/kg, route po; details: in vivo
[21] = Plasma protein binding in CD1 mouse at 5 mg/kg, po by LC-MS/MS analysis; type: ADME, organism-based; details: read-out: PPB (converted)
[22] = Clearance in Han Wistar rat at 1 mg/kg, iv by LC-MS/MS analysis; type: ADME, organism-based; details: in vivo
[23] = AUC (0 to inf) in CD1 mouse at 5 mg/kg, po by LC-MS/MS analysis; type: ADME, organism-based; set-up: time infinity, dose 5 mg/kg, route po; details: in vivo
[24] = Plasma protein binding in Han Wistar rat at 2 mg/kg, po by LC-MS/MS analysis; type: ADME, organism-based; details: read-out: PPB (converted)
[25] = Oral bioavailability in Han Wistar rat at 2 mg/kg by LC-MS/MS analysis; type: ADME, organism-based; details: in vivo
[26] = Cmax in CD1 mouse at 5 mg/kg, po by LC-MS/MS analysis; type: ADME, organism-based; set-up: dose 5 mg/kg, route po; details: in vivo
[27] = Cmax in Han Wistar rat at 2 mg/kg, po by LC-MS/MS analysis; type: ADME, organism-based; set-up: dose 2 mg/kg, route po; details: in vivo

SMILES | EC50 [1] | further results
CCN(CC)c1ccc(-c2nc3cccc(C)c3n2Cc2ccn(C)n2)cn1 | 1000 nM | –
CCN(CC)c1ccc(-c2nc3ccccc3n2CCOC)cn1 | 2510 nM | –
CCN(CC)c1ccc(-c2nc3ccccc3n2CCc2ccn(CC)n2)cn1 | 25100 nM | –
CCn1ccc(Cn2c(-c3ccc(N4CCCC4)nc3)nc3ccccc32)n1 | 5010 nM | –
CCN(CC)c1ccc(-c2nc3ccccc3n2Cc2cc[nH]n2)cn1 | 2510 nM | –
CCCCn1c(-c2ccc(N(CC)CC)nc2)nc2ccccc21 | 12600 nM | –
CCCN(CC)c1ccc(-c2nc3ccccc3n2Cc2ccn(CC)n2)cn1 | 1580 nM | –
COc1cc(C(N)=O)c(F)c2nc(-c3ccc(N4[C@@H](C)CC[C@@H]4C)nc3)n(C[C@@H]3CN(C)CCO3)c12 | 20 nM | –
CNC(=O)c1cc(OC)c2c(c1)nc(-c1ccc(N3[C@@H](C)CC[C@@H]3C)nc1)n2C[C@@H]1CN(C)CCO1 | – | Papp [2]: 22 ×10⁻⁶ cm/s
CCc1nc(Cn2c(-c3ccc(N(CC)CC)nc3)nc3ccccc32)co1 | 501 nM | –
CCN(CC)c1ccc(-c2nc3cccc(NC)c3n2Cc2ccn(C)n2)cn1 | 631 nM | –
CCN(CC)c1ccc(-c2nc3cc(C(=O)NCCO)ccc3n2CCOC(C)(C)C)cn1 | 200 nM | –
CCNC(=O)c1cc(OC)c2c(c1)nc(-c1ccc(N3[C@@H](C)CC[C@@H]3C)nc1)n2C[C@@H]1CNCCO1 | – | Papp [2]: 1.9 ×10⁻⁶ cm/s
CCOc1cccc2nc(-c3ccc(N(CC)CC)nc3)n(Cc3ccn(C)n3)c12 | 398 nM | –
CCc1ncc(Cn2c(-c3ccc(N(CC)CC)nc3)nc3ccccc32)o1 | 3160 nM | –
COc1cc(C(N)=O)cc2nc(-c3ccc(N4[C@@H](C)CC[C@@H]4C)nc3)n(C[C@@H]3CN(C)CCO3)c12 | 79.4 nM | –
CCN(CC)c1ccc(-c2nc3cc(C(=O)N(C)C)ccc3n2CCOC(C)(C)C)cn1 | 3980 nM | –
CCN(CC)c1ccc(-c2nc3cccc(OC)c3n2Cc2ccn(C)n2)cn1 | 79.4 nM | –
CCN(CC)c1ccc(-c2nc3ccccc3n2Cc2ccn(CC)n2)cc1 | 25100 nM | –

SMILES | EC50 [1] | further results
CCNc1ccc(-c2nc3ccccc3n2Cc2ccn(CC)n2)cn1 | 39800 nM | –
CCN(CC)c1ccc(-c2nc3ccccc3n2Cc2ccn(CC)n2)cn1 | 631 nM | –
CCN(CC)c1ccc(-c2nc3cc(OC)ccc3n2Cc2ccn(CC)n2)cn1 | 794 nM | –
CCc1nc(Cn2c(-c3ccc(N(CC)CC)nc3)nc3ccccc32)cs1 | 1580 nM | –
C[C@@H]1CN(C)C[C@H](Cn2c(-c3ccc(N4[C@@H](C)CC[C@@H]4C)nc3)nc3ccccc32)O1 | 20000 nM | chromatographic logD [3]: 5.5
CCN(CC)c1ccc(-c2nc3ccccc3n2CCOC(C)(C)C)cn1 | 316 nM | –
CCN(CC)c1ccc(-c2nc3cc(C#N)ccc3n2Cc2ccn(CC)n2)cn1 | 1000 nM | –
CCN(CC)c1ccc(-c2nc3cccc(C#N)c3n2Cc2ccn(C)n2)cn1 | 2000 nM | –
CCN(CC)c1ccc(-c2nc3c(C(N)=O)cccc3n2Cc2ccn(CC)n2)cn1 | 2000 nM | –
CCN(CC)c1ccc(-c2nc3ccccc3n2Cc2ccn(C)n2)cn1 | 251 nM | –
CCN(CC)c1ccc(-c2nc3c(C#N)cccc3n2Cc2ccn(CC)n2)cn1 | 1000 nM | –
CCOCCn1c(-c2ccc(N3CCC[C@H]3C)nc2)nc2ccccc21 | 12600 nM | –
COc1cccc2nc(-c3ccc(N4[C@@H](C)CC[C@@H]4C)nc3)n(Cc3ccn(C)n3)c12 | 25.1 nM | half-life [4]: 1 h; clearance [5]: 190 mL/min/kg; Vd [6]: 6 L/kg
CCN(CC)c1ccc(-c2nc3cc(C(=O)NCC4CC4)ccc3n2CCOC(C)(C)C)cn1 | 158 nM | –
CCN(CC)c1ccc(-c2nc3c(Cl)cccc3n2Cc2ccn(CC)n2)cn1 | 200 nM | –
CCOCCn1c(-c2ccc(N3[C@@H](C)CC[C@@H]3C)nc2)nc2cccc(OC)c21 | 25.1 nM | –
CCN(C)c1ccc(-c2nc3ccccc3n2Cc2ccn(CC)n2)cn1 | 3980 nM | –
CCN(CC)c1ccc(-c2nc3c(C)cccc3n2Cc2ccn(CC)n2)cn1 | 316 nM | –
CCOCCn1c(-c2ccc(N(CC)CC)nc2)nc2ccccc21 | 398 nM | –

SMILES | EC50 [1] | further results
COc1cccc2nc(-c3ccc(N4[C@@H](C)CC[C@@H]4C)nc3)n(C[C@@H]3CNC[C@H](C)O3)c12 | 158 nM | chromatographic logD [3]: 4.4
CCOCCn1c(-c2ccc(N3[C@@H](C)CC[C@@H]3C)nc2)nc2ccccc21 | 251 nM | solubility kinetic [7]: 254 µM (≈ 92.6 µg/mL); chromatographic logD [3]: 6.4; Papp [2]: 54.5 ×10⁻⁶ cm/s
CCn1ccc(Cn2c(-c3ccc(N4CCCC4C)nc3)nc3ccccc32)n1 (stereo not given) | 1580 nM | –
Cc1cccc2nc(-c3ccc(N4[C@@H](C)CC[C@@H]4C)nc3)n(Cc3ccn(C)n3)c12 | 100 nM | solubility kinetic [7]: 309 µM (≈ 124 µg/mL); chromatographic logD [3]: 7; Papp [2]: 64 ×10⁻⁶ cm/s
CCN(CC)c1ccc(-c2cc3ccccc3n2Cc2ccn(CC)n2)cn1 | 7940 nM | –
CCN(CC)c1ccc(-c2nc3cc(C)ccc3n2Cc2ccn(CC)n2)cn1 | 631 nM | –
C[C@H]1CN(C)C[C@@H](Cn2c(-c3ccc(N4[C@@H](C)CC[C@@H]4C)nc3)nc3ccccc32)O1 | 1580 nM | chromatographic logD [3]: 5.6
CCN(CC)c1ccc(-c2nc3cc(C(=O)NC)ccc3n2Cc2ccn(CC)n2)cn1 | 126 nM | Activity [8]: Dose-dependent effect; Activity [9]: inactive; Activity [10]: Dose-dependent effect; inhibition at 2 µM [11]: 50%
COc1cccc2nc(-c3ccc(N4[C@@H](C)CC[C@@H]4C)nc3)n(C[C@@H]3CNCCO3)c12 | 126 nM | Vd [12]: 6.3 L/kg; chromatographic logD [3]: 4; bioavailability [13]: 63%; clearance [14]: 35 mL/min/kg; half-life [15]: 5.1 h; AUC(0-t) [16]: 1600 ng·h/mL
CCOCCn1c(-c2ccc(N3CCC[C@@H]3C)nc2)nc2ccccc21 | 1260 nM | –
CNC(=O)c1cc(OC)c2c(c1)nc(-c1ccc(N3[C@@H](C)CC[C@@H]3C)nc1)n2C[C@@H]1CNCCO1 | – | Papp [2]: 1.3 ×10⁻⁶ cm/s
CCN(CC)c1ccc(-c2nc3ccccc3n2Cc2coc(C)n2)cn1 | 501 nM | –
CCN(CC)c1ccc(-c2nc3cc(C(N)=O)ccc3n2CCOC(C)(C)C)cn1 | 158 nM | –
CCN(CC)c1ccc(-c2nc3ccccc3n2CCOC(C)C)cn1 | 251 nM | –
CCOCCn1c(-c2ccc(N3[C@H](C)CC[C@@H]3C)nc2)nc2ccccc21 | 2000 nM | –
CNC(=O)c1cc(OC)c2c(nc(-c3ccc(N4[C@@H](C)CC[C@@H]4C)nc3)n2C[C@@H]2CN(C)CCO2)c1F | 63.1 nM | half-life [17]: 4.3 h; Vd [18]: 2.8 L/kg; bioavailability [19]: 26%; AUC(0-inf) [20]: 3160 ng·h/mL; fraction unbound [21]: 0.07; clearance [22]: 11 mL/min/kg; AUC(0-inf) [23]: 784 ng·h/mL; fraction unbound [24]: 0.05; bioavailability [25]: 83%; Cmax [26]: 205 ng/mL; Cmax [27]: 180 ng/mL
CCN(CC)c1ccc(-c2nc3ccccc3n2Cc2cccc(C)n2)cn1 | 2510 nM | –
COc1cccc2nc(-c3ccc(N4[C@@H](C)CC[C@@H]4C)nc3)n(C[C@@H]3CN(C)C[C@H](C)O3)c12 | 79.4 nM | chromatographic logD [3]: 6.8
